Measurements taken from patent US7919295B2, “Polyol oxidases” (Danisco US Inc., priority 2006, dated 2011).

Tested on: Sorbitol oxidase
Test: Substrate range study of sorbitol oxidase (relative POx activities for substrates)
Assay type: biochemical, Streptomyces sp. H-7775
[1] = substrates 50 mM in 10 mM phosphate buffer pH 7.0, relative to sorbitol

Protocol: All substrates used in the assay were 50 mM in 10 mM phosphate buffer pH 7.0.

Row | Compound | Relative Activity (+, 0) [1] | Relative Activity (+, 0) (pH 7)
1 | CC(O)CO (stereo not drawn) [Propylene glycol] | 0 | 
2 | OCCO [Ethylene glycol] |  | 0
3 | OC[C@@H](O)[C@@H](O)[C@H](O)[C@@H](O)CO [D-Sorbitol] | ++++++ (++++++=100%) | 
